Data reported in patent publication EP0362645B1, “Use of pteridines in the prevention of the primary and secondary resistance during chemotherapy, and medicaments containing these compounds” (Dr. Karl Thomae GmbH, priority 1988, dated 1990).

Test system: adriamycinresistente S 180 Maus Sarcomazellen
Assay: MTT proliferation/cytotoxicity assay on adriamycin-resistant S 180 sarcoma cells, with or without adriamycin (sensitisation)
Type: cell-based
Details: S-180, 144 h, six days culture, MTT readout
Source text: Beispielsweise wurde die Sensibilisierung durch die Verbindungen A = 4-[N-(2-Hydroxy-2-methyl-propyl)-ethanolamino]-2,7-bis-(2,6-dimethyl-morpholino)-6-phenyl-pteridin, B = 4-Ethyl-ethanolamino-2,7-bis(2,6-dimethyl-morpholino)-6-phenyl-pteridin, C = 4-Ethanol-isopropanolamino-2,7-bis(2,6-dimethyl-morpholino)-6-phenyl-pteridin, D = 4-Diethanolamino-2,7-bis(2,6-dimethyl-morpholino)-6-phenyl-pteridin und E = 4-[N-(2-Hydroxy-2-methyl-propyl)-ethanolamino]-2,7-bis(cis-2,6-dimethyl-morpholino)-6-phenyl-pteridin am Beispiel von gegen Adriamycin resistenten Zellen wie folgt geprüft: Proliferierende, adriamycinresistente S 180 Maus Sarcomazellen werden in Anwesenheit unterschiedlicher Konzentrationen Testsubstanzen für sechs Tage kultiviert. Zytotoxisch oder zytostatisch wirkende Konzentrationen der Testsubstanzen werden durch vermindertes Zellwachstum oder durch das Absterben der Zellen angezeigt. Endpunkt des Assays ist die Zahl der lebenden Zellen pro Kultur, die indirekt ermittelt wird, indem die Eigenschaft vitaler Zellen, den Farbstoff MTT [= 3-(4,5-Dimethylthiazol-2-yl)-2,5-diphenyltetrazoliumbromid] zum farbigen Formazan zu reduzieren, ausgenützt wird. Als IC50 wird die Konzentration einer Testsubstanz bezeichnet, welche die Zahl der vitalen Zellen pro Kulturgefäß auf 50 % der unbehandelten Kontrolle reduziert. Die Testsubstanzen werden sowohl in Abwesenheit von Adriamycin als auch in Anwesenheit einer unter Kulturbedingungen nicht proliferationshemmend wirkenden Menge Adriamycin getestet. Pro Testsubstanz erhält man daher zwei IC50-Werte, einen in Anwesenheit (IC50 ADR), den anderen in Abwesenheit (IC50) von Adriamycin. Die Differenz der Zehnerlogarithmen der beiden IC50-Werte: Δ = 1gIC50-1gIC50 ADR ist ein Maß für die Erhöhung der Zytotoxizität der Testsubstanz durch Adriamycin.
Exponentiell wachsende, adriamycinresistente oder adriamycinsensitive S 180-Zellen werden in 96-Loch Flachboden-Mikrotiterplatten zu 2000 Zellen pro Loch in 100 »l Wachstumsmedium (RPMI-1640, das 10 % fötales Rinderserum enthält) ausplattiert. Die Kulturplatten werden im Brutschrank bei 37°C, 5 % CO₂ und 100 % relativer Luftfeuchtigkeit inkubiert. Nach 24 Stunden werden pro Loch 50 »l Wachstumsmedium, das unterschiedliche Konzentrationen an Testsubstanz enthält, und 50 »l Wachstumsmedium mit oder ohne Adriamycin hinzugefügt. Im Anschluß an eine weitere sechstägige Kultivierung werden 50 »l Tetrazoliumsalzlösung [5 mg 3-(4,5-Dimethylthiazol-2-yl)-2,5-diphenyltetrazoliumbromid pro ml Phosphat-gepufferter Salinelösung, vor Gebrauch 1:5 (v/v) mit RPMI-1640 verdünnt] in jedes Loch pipettiert. Nach vier Stunden Inkubation wird das Kulturmedium vorsichtig abgesaugt und intrazellulär gebildetes Formazan durch 150 »l Dimethylsulfoxid pro Loch solubilisiert. Die Platten werden kurz geschüttelt und die optische Dichte bei 570 nm mit einem Photometer wie einem Dynatech MR-600-Gerät gemessen. Die Bildung des farbigen Formazans durch Reduktion des Tetrazoliumsalzes ist proportional der Zahl der lebenden Zellen. Die Mittelwerte von Dreifach-Bestimmungen wurden bei der Berechnung der IC50-Werte verwendet (Verdünnungsstufe: 1:2).

[1] = Tabelle 2, Adriamycin 100 ng/ml

C[C@@H]1CN(c2nc(N(CCO)CC(C)(C)O)c3nc(-c4ccccc4)c(N4C[C@@H](C)O[C@@H](C)C4)nc3n2)C[C@H](C)O1 [E, 4-[N-(2-Hydroxy-2-methyl-propyl)-ethanolamino]-2,7-bis(cis-2,6-dimethyl-morpholino)-6-phenyl-pteridin]
IC50 (Tabelle 1, Adriamycin 0 ng/ml): 7.5 µg/mL
IC50 (Tabelle 1, Adriamycin 25 ng/ml): 0.5 µg/mL
IC50 (Tabelle 2, Adriamycin 0 ng/ml): 7.5 µg/mL
IC50 [1]: 0.1 µg/mL

CCN(CCO)c1nc(N2CC(C)OC(C)C2)nc2nc(N3CC(C)OC(C)C3)c(-c3ccccc3)nc12 (centres unmarked) [B, 4-Ethyl-ethanolamino-2,7-bis(2,6-dimethyl-morpholino)-6-phenyl-pteridin]
IC50 (Tabelle 1, Adriamycin 0 ng/ml): > 31.6 µg/mL
IC50 (Tabelle 1, Adriamycin 25 ng/ml): 4.43 µg/mL
IC50 (Tabelle 2, Adriamycin 0 ng/ml): > 31.6 µg/mL
IC50 [1]: 0.77 µg/mL

CC1CN(c2nc(N(CCO)CC(C)(C)O)c3nc(-c4ccccc4)c(N4CC(C)OC(C)C4)nc3n2)CC(C)O1 (centres unmarked) [A, 4-[N-(2-Hydroxy-2-methyl-propyl)-ethanolamino]-2,7-bis-(2,6-dimethyl-morpholino)-6-phenyl-pteridin]
IC50 (Tabelle 1, Adriamycin 0 ng/ml): 20.7 µg/mL
IC50 (Tabelle 1, Adriamycin 25 ng/ml): 1.49 µg/mL
IC50 (Tabelle 2, Adriamycin 0 ng/ml): 20.7 µg/mL
IC50 [1]: < 0.5 µg/mL

CC1CN(c2nc(N(CCO)CCO)c3nc(-c4ccccc4)c(N4CC(C)OC(C)C4)nc3n2)CC(C)O1 (centres unmarked) [D, 4-Diethanolamino-2,7-bis(2,6-dimethyl-morpholino)-6-phenyl-pteridin]
IC50 (Tabelle 1, Adriamycin 0 ng/ml): 14.4 µg/mL
IC50 (Tabelle 1, Adriamycin 25 ng/ml): 5.78 µg/mL
IC50 (Tabelle 2, Adriamycin 0 ng/ml): 14.4 µg/mL
IC50 [1]: 1.57 µg/mL

CC(O)CN(CCO)c1nc(N2CC(C)OC(C)C2)nc2nc(N3CC(C)OC(C)C3)c(-c3ccccc3)nc12 (centres unmarked) [C, 4-Ethanol-isopropanolamino-2,7-bis(2,6-dimethyl-morpholino)-6-phenyl-pteridin]
IC50 (Tabelle 1, Adriamycin 0 ng/ml): 12.8 µg/mL
IC50 (Tabelle 1, Adriamycin 25 ng/ml): 3.77 µg/mL
IC50 (Tabelle 2, Adriamycin 0 ng/ml): 12.8 µg/mL
IC50 [1]: 0.82 µg/mL
